One may read the Ki as a measure of affinity in units of concentration, obtained from inhibition or displacement. A low value points to higher affinity.

The target in experiment [1] is μ-opioid receptors in the guinea pig ileum (Cavia porcellus, UniProt A0ACM8Q262). Kind of experiment: Functional activity: inhibition of DAMGO-induced decrease of twitch contraction amplitude in guinea pig ileum. Format: cell-based. The following applies: read-out: IC50 Value (concentration causing a half-maximal inhibition of DAMGO-induced decrease of twitch contraction amplitude). On the procedure: The IC50 values (concentration causing a half-maximal inhibition of DAMGO-induced decrease of twitch contraction amplitude) were determined by non-linear regression analysis of the dose-response curves.
μ-opioid receptors in the guinea pig ileum, sequence (A0ACM8Q262 1-400): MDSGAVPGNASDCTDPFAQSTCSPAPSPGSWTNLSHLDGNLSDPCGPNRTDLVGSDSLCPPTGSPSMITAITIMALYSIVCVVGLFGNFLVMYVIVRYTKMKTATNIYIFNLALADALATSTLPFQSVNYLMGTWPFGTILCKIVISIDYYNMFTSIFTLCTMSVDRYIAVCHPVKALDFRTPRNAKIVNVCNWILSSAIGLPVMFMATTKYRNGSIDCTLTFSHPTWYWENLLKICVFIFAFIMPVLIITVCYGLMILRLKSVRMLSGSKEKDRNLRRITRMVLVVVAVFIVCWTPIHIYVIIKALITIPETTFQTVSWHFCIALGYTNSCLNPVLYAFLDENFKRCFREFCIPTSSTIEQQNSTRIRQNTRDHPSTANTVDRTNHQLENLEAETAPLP
Results are expressed as a concentration causing a half-maximal inhibition of DAMGO-induced decrease of twitch contraction amplitude of guinea-pig ileum in the presence of compounds 6-alpha-methylnaltrexol, 6-beta-methylnaltrexol and 3-sulfo-methylnaltrexone.

The target of a further experiment is human mu opioid receptor (Homo sapiens, UniProt P35372). In words: Radioligand competition binding at the human mu opioid receptor. The following applies: for nH (Hill coefficient): human mu opioid receptor, competition curves. On the procedure:
Compounds of the invention were assayed for activity at the human mu opioid receptor by methods substantially similar to those described in Zhang, et al., (1998) “Dynorphin A as a potential endogenous ligand for four members of the opioid receptor gene family.” J. Pharmacol. Exp. Ther., 286: 136-141.
IC50 values (concentration causing a half-maximal inhibition of control specific binding) and Hill coefficients (nH) were determined by non-linear regression analysis of the competition curves using Hill equation curve fitting.
Inhibition constants (Ki) were calculated from the Cheng Prusoff equation: (Ki=IC50/(1+(L/KD)), where L=concentration of radioligand in the assay, and KD=affinity of the radioligand for the receptor).
Results are expressed as a percent of control specific binding obtained in the presence of compounds 6-alpha-methylnaltrexol, 6-beta-methylnaltrexol and 3-sulfo-methylnaltrexone.

human mu opioid receptor, sequence (P35372 whole entry): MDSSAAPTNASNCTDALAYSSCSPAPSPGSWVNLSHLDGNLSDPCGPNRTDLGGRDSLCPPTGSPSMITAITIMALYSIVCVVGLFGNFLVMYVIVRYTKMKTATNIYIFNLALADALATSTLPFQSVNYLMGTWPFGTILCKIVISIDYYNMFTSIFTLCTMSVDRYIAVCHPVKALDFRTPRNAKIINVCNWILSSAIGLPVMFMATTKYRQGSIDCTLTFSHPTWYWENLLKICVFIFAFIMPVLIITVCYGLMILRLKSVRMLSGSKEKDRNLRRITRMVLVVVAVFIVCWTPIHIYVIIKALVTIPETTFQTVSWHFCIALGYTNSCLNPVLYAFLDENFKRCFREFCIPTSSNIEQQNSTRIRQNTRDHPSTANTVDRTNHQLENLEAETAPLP

On to `C[N+]1(CC2CC2)CC[C@]23c4c5ccc(O)c4O[C@H]2[C@@H](O)CC[C@@]3(O)[C@H]1C5` (stereo partly drawn) [Compound I-1, (5α,6α)-17-cyclopropylmethyl-17-methyl-4,5-epoxy-3,6,14-trihydroxy-morphinan bromide], for which, in experiment [1], the IC50 was determined as 170 nM. For the same molecule, on human mu opioid receptor, the IC50 came out at 110 nM, the Ki is 30 nM and the “nH (Hill coefficient)” value stood at 0.8.

Consider `C[N+]1(CC2CC2)CC[C@]23c4c5ccc(O)c4O[C@H]2[C@H](O)CC[C@@]3(O)[C@H]1C5` (stereo partly drawn) [Compound I-2, (5α,6β)-17-cyclopropylmethyl-17-methyl-4,5-epoxy-3,6,14-trihydroxy-morphinan bromide], for which the IC50 in experiment [1] amounted to 140 nM. Moreover, on human mu opioid receptor, the IC50 was determined as 230 nM; the affinity, expressed as Ki, was 60 nM; the “nH (Hill coefficient)” value is 0.9.

Regarding `C[N+]1(CC2CC2)CC[C@]23c4c5ccc(OS(=O)(=O)O)c4O[C@H]2C(=O)CC[C@@]3(O)[C@H]1C5` (stereo partly drawn) [Compound I-3, 3 sulfo-methylnaltrexone], in experiment [1], the IC50 came out at 10000 nM. Besides, on human mu opioid receptor, the IC50 came to 8300 nM, affinity was put at a Ki of 2200 nM and the “nH (Hill coefficient)” value was 0.8.

Source of the values: patent US8853232B2, “Peripheral opioid receptor antagonists and uses thereof” (Progenics Pharmaceuticals, Inc., priority 2007, dated 2014).
